# Patent publication US20170101383A1, “DIAMINOTRIAZINE DERIVATIVES AS HERBICIDES” (BASF SE, priority 2014, published 2017)
# Tests used:
# [1] = tested on: Setaria viridis; assay: greenhouse post-emergence treatment, SETVI; assay type: in vivo; details: 0.500 kg/ha, scale 0 to 100
# Excerpt: (§1) The seeds of the test plants were sown separately for each species. For the post-emergence treatment, the test plants were first grown to a height of 3 to 15 cm, depending on the plant habit, and only then treated with the active ingredients which had been suspended or emulsified in water. For this purpose, the test plants were either sown directly and grown in the same containers, or they were first grown separately as seedlings and transplanted into the test containers a few days prior to treatment. Depending on the species, the plants were kept at 10-25° C. or 20-35° C., respectively. The test period extended over 2 to 4 weeks. During this time, the plants were tended, and their response to the individual treatments was evaluated. Evaluation was carried out using a scale from 0 to 100. 100 means no emergence of the plants, or complete destruction of at least the aerial moieties, and 0 means no damage, or normal course of growth. A moderate herbicidal activity is given at values of at least 60, a good herbicidal activity is given at values of at least 70, and a very good herbicidal activity is given at values of at least 85. The plants used in the greenhouse experiments were of the following species: [table]
# [2] = tested on: Amaranthus retroflexus; assay: greenhouse pre-emergence treatment, AMARE; assay type: in vivo; details: scale 0 to 100
# Excerpt: (§2) The seeds of the test plants were sown separately for each species. For the pre-emergence treatment, the active ingredients, which had been suspended or emulsified in water, were applied directly after sowing by means of finely distributing nozzles. The containers were irrigated gently to promote germination and growth and subsequently covered with transparent plastic hoods until the plants had rooted. This cover caused uniform germination of the test plants, unless this had been impaired by the active ingredients. Depending on the species, the plants were kept at 10-25° C. or 20-35° C., respectively. The test period extended over 2 to 4 weeks. During this time, the plants were tended, and their response to the individual treatments was evaluated. Evaluation was carried out using a scale from 0 to 100. 100 means no emergence of the plants, or complete destruction of at least the aerial moieties, and 0 means no damage, or normal course of growth. A moderate herbicidal activity is given at values of at least 60, a good herbicidal activity is given at values of at least 70, and a very good herbicidal activity is given at values of at least 85. The plants used in the greenhouse experiments were of the following species: [table]
# [3] = tested on: Echinocloa crus-galli; assay: greenhouse post-emergence treatment, ECHCG; assay type: in vivo; details: scale 0 to 100
# Excerpt: as §1
# [4] = tested on: Alopecurus myosuroides; assay: greenhouse pre-emergence treatment, ALOMY; assay type: in vivo; details: scale 0 to 100
# Excerpt: as §2
# [5] = tested on: Polygonum convolvulus; assay: greenhouse post-emergence treatment, POLCO; assay type: in vivo; details: 0.500 kg/ha, scale 0 to 100
# Excerpt: as §1
# [6] = tested on: Apera spica-venti; assay: greenhouse pre-emergence treatment, APESV; assay type: in vivo; details: scale 0 to 100
# Excerpt: as §2
# [7] = tested on: Viola arvensis; assay: greenhouse post-emergence treatment, VIOAR; assay type: in vivo; details: 0.500 kg/ha, scale 0 to 100
# Excerpt: as §1
# [8] = tested on: Setaria faberi; assay: greenhouse pre-emergence treatment, SETFA; assay type: in vivo; details: scale 0 to 100
# Excerpt: as §2
# [9] = tested on: Echinocloa crus-galli; assay: greenhouse pre-emergence treatment, ECHCG; assay type: in vivo; details: scale 0 to 100
# Excerpt: as §2
# [10] = tested on: Stellaria media; assay: greenhouse post-emergence treatment, STEME; assay type: in vivo; details: 0.500 kg/ha, scale 0 to 100
# Excerpt: as §1
# [11] = tested on: Stellaria media; assay: greenhouse pre-emergence treatment, STEME; assay type: in vivo; details: 0.500 kg/ha, scale 0 to 100
# Excerpt: as §2
# [12] = tested on: Lamium purpureum; assay: greenhouse pre-emergence treatment, LAMPU; assay type: in vivo; details: 0.500 kg/ha, scale 0 to 100
# Excerpt: as §2
# [13] = tested on: Viola arvensis; assay: greenhouse pre-emergence treatment, VIOAR; assay type: in vivo; details: 0.500 kg/ha, scale 0 to 100
# Excerpt: as §2
# [14] = tested on: Setaria faberi; assay: greenhouse post-emergence treatment, SETFA; assay type: in vivo; details: scale 0 to 100
# Excerpt: as §1
# [15] = tested on: Amaranthus retroflexus; assay: greenhouse post-emergence treatment, AMARE; assay type: in vivo; details: Amaranthus retroflexus, scale 0 to 100, read-out: herbicidal activity against AMARE; for pest or weed control at 500 g/ha: 0.500 kg/ha
# Excerpt: as §1
# [16] = tested on: Abutilon theophrasti; assay: greenhouse pre-emergence treatment, ABUTH; assay type: in vivo; details: 0.500 kg/ha, scale 0 to 100
# Excerpt: as §2
# [17] = tested on: Abutilon theophrasti; assay: greenhouse post-emergence treatment, ABUTH; assay type: in vivo; details: 0.500 kg/ha, scale 0 to 100
# Excerpt: as §1
# [18] = known from Archiv der Pharmazie, 1984, Vol. 317, S. 754; cited from earlier work
structure (smiles),measurement,setting,value
"COc1nc(N)nc(Nc2c(F)c(F)c(F)c(F)c2F)n1 [Example 2, 6-methoxy-N2-(2,3,4,5,6-pentafluorophenyl)-1,3,5-triazine-2,4-diamine]",herbicidal activity against SETVI,[1],very good (a very good herbicidal activity is given at values of at least 85)
same,herbicidal activity against AMARE,[2]; 0.125 kg/ha,good to very good
same,herbicidal activity against ECHCG,[3]; 0.500 kg/ha,very good (a very good herbicidal activity is given at values of at least 85)
same,herbicidal activity against ALOMY,[4]; 0.125 kg/ha,good to very good
same,herbicidal activity against POLCO,[5],very good (a very good herbicidal activity is given at values of at least 85)
same,herbicidal activity against APESV,[6]; 0.125 kg/ha,good to very good
Nc1nc(Nc2c(F)c(F)c(F)c(F)c2F)nc(OCC(F)(F)F)n1 [Example 3],herbicidal activity against VIOAR,[7],very good (a very good herbicidal activity is given at values of at least 85)
same,herbicidal activity against SETFA,[8]; 1.000 kg/ha,very good (a very good herbicidal activity is given at values of at least 85)
same,herbicidal activity against SETVI,[1],very good (a very good herbicidal activity is given at values of at least 85)
same,herbicidal activity against AMARE,[2]; 1.000 kg/ha,very good (a very good herbicidal activity is given at values of at least 85)
same,herbicidal activity against ECHCG,[9]; 1.000 kg/ha,very good (a very good herbicidal activity is given at values of at least 85)
same,herbicidal activity against STEME,[10],very good (a very good herbicidal activity is given at values of at least 85)
COc1nc(N)nc(Nc2c(F)c(F)cc(F)c2F)n1 [Example 4],herbicidal activity against STEME,[11],very good (a very good herbicidal activity is given at values of at least 85)
same,herbicidal activity against LAMPU,[12],very good (a very good herbicidal activity is given at values of at least 85)
same,herbicidal activity against VIOAR,[13],very good (a very good herbicidal activity is given at values of at least 85)
Nc1nc(Nc2c(F)c(F)c(F)c(F)c2F)nc(N2CCCCC2)n1 [Example 5],herbicidal activity against AMARE,[2]; 1.000 kg/ha,very good (a very good herbicidal activity is given at values of at least 85)
same,herbicidal activity against SETFA,[14]; 1.000 kg/ha,very good (a very good herbicidal activity is given at values of at least 85)
same,herbicidal activity against ECHCG,[3]; 1.000 kg/ha,very good (a very good herbicidal activity is given at values of at least 85)
same,herbicidal activity against ALOMY,[4]; 1.000 kg/ha,very good (a very good herbicidal activity is given at values of at least 85)
same,pest or weed control at 1000 g/ha,[15]; 1.000 kg/ha,≥ 85%
same,herbicidal activity against APESV,[6]; 1.000 kg/ha,very good (a very good herbicidal activity is given at values of at least 85)
CC1CCC(C)N1c1nc(N)nc(Nc2c(F)c(F)cc(F)c2F)n1 (centres unmarked) [Example 18],herbicidal activity against AMARE,[2]; 0.500 kg/ha,very good (a very good herbicidal activity is given at values of at least 85)
same,herbicidal activity against ECHCG,[9]; 0.500 kg/ha,very good (a very good herbicidal activity is given at values of at least 85)
same,herbicidal activity against APESV,[6]; 0.500 kg/ha,very good (a very good herbicidal activity is given at values of at least 85)
CON(C)c1nc(N)nc(Nc2c(F)c(F)cc(F)c2F)n1 [Example 28],herbicidal activity against SETFA,[8]; 0.500 kg/ha,very good (a very good herbicidal activity is given at values of at least 85)
same,herbicidal activity against AMARE,[2]; 0.500 kg/ha,very good (a very good herbicidal activity is given at values of at least 85)
same,herbicidal activity against SETFA,[14]; 0.500 kg/ha,very good (a very good herbicidal activity is given at values of at least 85)
same,herbicidal activity against ALOMY,[4]; 0.500 kg/ha,very good (a very good herbicidal activity is given at values of at least 85)
same,herbicidal activity against ABUTH,[16],very good (a very good herbicidal activity is given at values of at least 85)
same,pest or weed control at 500 g/ha,[15],≥ 85%
same,herbicidal activity against ABUTH,[17],very good (a very good herbicidal activity is given at values of at least 85)
same,herbicidal activity against APESV,[6]; 0.500 kg/ha,very good (a very good herbicidal activity is given at values of at least 85)
Nc1nc(Nc2c(F)c(F)c(F)c(F)c2F)nc(N2CCC2)n1 [Example 33],herbicidal activity against SETFA,[8]; 0.500 kg/ha,very good (a very good herbicidal activity is given at values of at least 85)
same,herbicidal activity against AMARE,[2]; 0.500 kg/ha,very good (a very good herbicidal activity is given at values of at least 85)
same,herbicidal activity against ECHCG,[3]; 0.500 kg/ha,very good (a very good herbicidal activity is given at values of at least 85)
same,herbicidal activity against ABUTH,[16],very good (a very good herbicidal activity is given at values of at least 85)
same,pest or weed control at 500 g/ha,[15],≥ 85%
same,herbicidal activity against ECHCG,[9]; 0.500 kg/ha,very good (a very good herbicidal activity is given at values of at least 85)
same,herbicidal activity against ABUTH,[17],very good (a very good herbicidal activity is given at values of at least 85)
Nc1nc(Nc2c(F)c(F)cc(F)c2F)nc(N2CCC2)n1 [Example 34],herbicidal activity against SETFA,[8]; 0.500 kg/ha,very good (a very good herbicidal activity is given at values of at least 85)
same,herbicidal activity against AMARE,[2]; 0.500 kg/ha,very good (a very good herbicidal activity is given at values of at least 85)
same,herbicidal activity against ECHCG,[3]; 0.500 kg/ha,very good (a very good herbicidal activity is given at values of at least 85)
same,herbicidal activity against ABUTH,[16],very good (a very good herbicidal activity is given at values of at least 85)
same,pest or weed control at 500 g/ha,[15],≥ 85%
same,herbicidal activity against ECHCG,[9]; 0.500 kg/ha,very good (a very good herbicidal activity is given at values of at least 85)
same,herbicidal activity against ABUTH,[17],very good (a very good herbicidal activity is given at values of at least 85)
"CC(C)Nc1nc(Nc2ccccc2F)nc(NC(C)C)n1 [N6-(2-fluorophenyl)-N2,N4-diisopropyl-1,3,5-triazine-2,4,6-triamine]",trichomonacidal activity,[18],shows trichomonacidal activity
